The target of this experiment is hPK-M2 (Homo sapiens, UniProt P14618). Put plainly: Luminescent pyruvate kinase-luciferase coupled assay (KinaseGlo). Type of experiment: biochemical. Particulars: for activation at 57 µM / hPK, M2 Max. Res.: KinaseGlo, % activation at 57 μM of compound; for activation at 57 µM: read-out: hPK, M2 Max. Res. The method, then: Luminescent Pyruvate Kinase-Luciferase Coupled Assay.
Production of a luminescent signal based on the generation of ATP by pyruvate kinase was determined by using the ATP-dependent enzyme firefly luciferase. Three μL of substrate mix (at r.t.) in assay buffer (50 mM imidazole pH 7.2, 50 mM KCl, 7 mM MgCl2, 0.01% tween 20, 0.05% BSA) was dispensed into Kalypsys white solid bottom 1,536 well microtiter plates using a bottle-valve solenoid-based dispenser (Kalypsys). The final concentrations of substrates in the assay were 0.1 mM ADP and 0.5 mM PEP. […] Microtiter plates were incubated at r.t. for 1 hour and 2 uL of luciferase detection mix (Kinase-Glo, Promega at 4° C. protected from light) was added and luminescence was read with a ViewLux (Perkin Elmer) using a 5 second exposure/plate. Data was normalized for AC50 values to control columns containing uninhibited enzyme (n), and AC100 inhibition (i) according the following equation: Activation (%)=[(c−n)/(n−i)]*100 where c=compound, n=DMSO neutral, i=no enzyme control. […] Monitoring of activation was accomplished using enzyme at 3× the final concentration.

Where [1] appears, read: luminescent pyruvate kinase-luciferase coupled assay (KinaseGlo), tables, read-out: hPK, M2 AC50.
The mark [2] stands for this setting: luciferase-coupled assay, read-out: AC50.

Like-named read-outs stand apart in the source and are kept apart here.

Chain of hPK-M2 (P14618 whole entry): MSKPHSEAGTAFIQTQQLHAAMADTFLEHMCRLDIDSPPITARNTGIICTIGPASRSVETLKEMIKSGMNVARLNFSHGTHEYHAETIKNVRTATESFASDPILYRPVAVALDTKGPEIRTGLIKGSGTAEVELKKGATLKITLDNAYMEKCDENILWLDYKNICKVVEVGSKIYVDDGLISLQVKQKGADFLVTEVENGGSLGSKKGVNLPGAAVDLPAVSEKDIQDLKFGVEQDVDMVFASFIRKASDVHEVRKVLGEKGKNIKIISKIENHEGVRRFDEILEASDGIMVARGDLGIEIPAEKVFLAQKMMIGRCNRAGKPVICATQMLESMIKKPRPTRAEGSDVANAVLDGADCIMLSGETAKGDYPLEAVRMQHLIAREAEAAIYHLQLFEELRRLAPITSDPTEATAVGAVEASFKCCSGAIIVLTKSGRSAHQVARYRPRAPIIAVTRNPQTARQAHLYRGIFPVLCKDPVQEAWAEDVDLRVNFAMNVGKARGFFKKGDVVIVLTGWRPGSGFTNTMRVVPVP

For the compound `O=S(=O)(NCCCCCNS(=O)(=O)c1c(F)cccc1F)c1ccc2c(c1)OCCO2` [Compound 35, N-(5-(2,6-difluorophenylsulfonamido)pentyl)-2,3-dihydrobenzo[b][1,4]dioxine-6-sulfonamide], the activation at 57 µM worked out at 114 ± 1.4%. Under setting [1], the AC50 stood at 2330 ± 160 nM.
Take `Cc1cc2c(s1)c1cnn(Cc3ccc(C)c(F)c3F)c(=O)c1n2C` [Compound 119, 2,4-Methyl-6-[(4-methyl-2,3-fluorophenyl)methyl]-4H-thieno[3,2-b]pyrrole[3,2-d]pyridazinone]: the “hPK, M2 Max. Res.” value was found to be 80.5 ± 5.8%. The half-maximal activity concentration (AC50) under setting [1] is 108 ± 30 nM.
Regarding `COC(=O)c1cc2c(s1)c1cnn(Cc3ccccc3F)c(=O)c1n2C` [Compound 83, Methyl 4-methyl-6-[(2-fluorophenyl)methyl]-4,1-thieno[3,2-b]pyrrole[3,2-d]pyridazinone-2-carboxylate], the activation at 57 µM was found to be 70.4 ± 12.9%. Besides, the AC50 under setting [1] is 84 ± 30 nM.
Regarding `Cc1cc2c(s1)c1cnn(Cc3ccc(F)c(F)c3F)c(=O)c1n2C` [Compound 116, 2,4-Methyl-6-[(2,3,4-trifluorophenyl)methyl]-4H-thieno[3,2-b]pyrrole[3,2-d]pyridazinone], the activation at 57 µM worked out at 69.2 ± 14.6%. The AC50 under setting [1] came to 174 ± 70 nM.
For `COc1ccc(S(=O)(=O)N2CCN(S(=O)(=O)c3ccc(OC)cc3)CC2)cc1` [Compound 3, 1,4-bis(4-methoxyphenylsulfonyl)piperazine], the activation at 57 µM worked out at 87.6 ± 16.2%. The AC50 under setting [1] was 171 nM.
With `CC(O)c1cc2c(s1)c1cnn(Cc3ccccc3F)c(=O)c1n2C` (centres unmarked) [Compound 88], the “hPK, M2 Max. Res.” value came out at 119.7 ± 2.6%. Further, the AC50 under setting [1] amounted to 136 ± 10 nM.
On to `O=S(=O)(c1ccc2c(c1)OCCO2)N1CCN(S(=O)(=O)c2ccc3c(c2)OCCO3)CC1` [Compound 2, 1,4-bis(2,3-dihydrobenzo[b][1,4]dioxin-6-ylsulfonyl)piperazine], for which the activation at 57 µM came out at 89.7 ± 2.2%. In addition, the AC50 under setting [2] was determined as 270 nM.
`Cc1cc2c(s1)c1cnn(Cc3cccc(Cl)c3)c(=O)c1n2C` [Compound 107, 2,4-Methyl-6-[(3-chlorophenyl)methyl]-4H-thieno[3,2-b]pyrrole[3,2-d]pyridazinone]: the activation at 57 µM stood at 99.1 ± 3.1%. Also, the AC50 under setting [1] turned out to be 126 ± 10 nM.
Consider `CNc1cccc(S(=O)(=O)N2CCN(S(=O)(=O)c3ccc4c(c3)OCCO4)CC2)c1` [Compound 142], for which the “hPK, M2 Max. Res.” value worked out at 67.00%. The half-maximal activity concentration (AC50) under setting [1] was 290 nM.
On to `Cn1ccc2cc(S(=O)(=O)N3CCN(S(=O)(=O)c4c(F)cccc4F)CC3)ccc21` [Compound 28, 5-(4-(2,6-difluorophenylsulfonyl)piperazin-1-ylsulfonyl)-1-methyl-1H-indole], for which the activation at 57 µM stood at 91.1 ± 4.7%. Besides, the half-maximal activity concentration (AC50) under setting [1] is 387 nM.
As for `CC(=O)Nc1cc2c(s1)c1cnn(Cc3ccccc3F)c(=O)c1n2C` [Compound 81, 2-Acetylamido-4-methyl-6-[(2-fluorophenyl)methyl]-4H-thieno[3,2-b]pyrrole[3,2-d]-pyridazinone], the activation at 57 µM came to 58.6 ± 23.5%.
Regarding `C[C@H]1CN(S(=O)(=O)c2ccc3c(c2)OCCO3)CCN1S(=O)(=O)c1c(F)cccc1F` [Compound 48, (S)-1-(2,6-difluorophenylsulfonyl)-4-(2,3-dihydrobenzo[b][1,4]dioxin-6-ylsulfonyl)-2-methylpiperazine], the activation at 57 µM was determined as 108 ± 8.4%. Besides, the half-maximal activity concentration (AC50) under setting [1] came to 2960 ± 200 nM.
In the case of `O=S(=O)(c1ccc2c(c1)OCCO2)N1CCCN(S(=O)(=O)c2c(F)cccc2F)CC1` [Compound 31, 1-(2,6-difluorophenylsulfonyl)-4-(2,3-dihydrobenzo[b][1,4]dioxin-6-ylsulfonyl)-1,4-diazepane], the activation at 57 µM was 120 ± 7.3%. Under setting [2], the AC50 stood at 866 nM.
Regarding `Cc1cc2c(s1)c1cnn(Cc3cccc(F)c3)c(=O)c1n2C` [Compound 104], the activation at 57 µM turned out to be 91.5 ± 8.4%. Besides, the concentration at half-maximal activity (AC50) under setting [1] was found to be 225 ± 100 nM.
Consider `N#Cc1ccc(S(=O)(=O)N2CCN(S(=O)(=O)c3ccc4c(c3)OCCO4)CC2)cc1` [Compound 4, 4-(4-(2,3-dihydrobenzo[b][1,4]dioxin-6-ylsulfonyl)piperazin-1-ylsulfonyl)benzonitrile], for which the activation at 57 µM turned out to be 44.1 ± 6.1%. Under setting [1], the AC50 amounted to 29 nM.
In the case of `Nc1cc(S(=O)(=O)N2CCN(S(=O)(=O)c3ccc4c(c3)OCCO4)CC2)ccn1` [Compound 146], the “hPK, M2 Max. Res.” value is 81.00%. For the same compound, the half-maximal activity concentration (AC50) under setting [1] stood at 1600 nM.
For the compound `O=S(=O)(c1ccc2c(c1)OCCO2)N1CCN(S(=O)(=O)c2ccccn2)CC1` [Compound 18, 1-(2,3-dihydrobenzo[b][1,4]dioxin-6-ylsulfonyl)-4-(pyridin-2-ylsulfonyl)piperazine], the activation at 57 µM came to 103 ± 6.6%. Also, the AC50 under setting [1] was 542 nM.
As for `O=S(=O)(NCC1CN(S(=O)(=O)c2c(F)cccc2F)C1)c1ccc2c(c1)OCCO2` [Compound 43], the activation at 57 µM turned out to be 93.3 ± 9%. Besides, the AC50 under setting [1] turned out to be 4470 nM.
Regarding `C[C@@H]1CN(S(=O)(=O)c2ccc3c(c2)OCCO3)CCN1S(=O)(=O)c1c(F)cccc1F` [Compound 47, (R)-1-(2,6-difluorophenylsulfonyl)-4-(2,3-dihydrobenzo[b][1,4]dioxin-6-ylsulfonyl)-2-methylpiperazine], the activation at 57 µM is 108 ± 9.9%. Further, under setting [1], the AC50 is 9180 ± 2560 nM.
For the compound `COc1cc2c(s1)c1cnn(Cc3ccccc3F)c(=O)c1n2C` [Compound 71, 2-Methoxy-4-methyl-6-[(2-fluorophenyl)methyl]-4H-thieno[3,2-b]pyrrole[3,2-d]pyridazinone], the AC50 under setting [1] amounted to 86 ± 40 nM.
Consider `Cc1cc2c(s1)c1cnn(Cc3c(F)cccc3Cl)c(=O)c1n2C` [Compound 115, 2,4-Methyl-6-[(2-chloro-6-fluorophenyl)methyl]-4H-thieno[3,2-b]pyrrole[3,2-d]pyridazinone], for which the activation at 57 µM was determined as 92.9 ± 4.1%. In addition, the AC50 under setting [1] is 60 ± 20 nM.
As to `O=S(=O)(NCCCCCCNS(=O)(=O)c1c(F)cccc1F)c1ccc2c(c1)OCCO2` [Compound 36, N-(6-(2,6-difluorophenylsulfonamido)hexyl)-2,3-dihydrobenzo[b][1,4]dioxine-6-sulfonamide], the activation at 57 µM is 110 ± 3%. Besides, the AC50 under setting [1] turned out to be 4830 ± 310 nM.
As to `Cn1c2cc(B(O)O)sc2c2cnn(Cc3ccccc3F)c(=O)c21` [Compound 86, 4-Methyl-6-[(2-fluorophenyl)methyl]-4,1-thieno[3,2-b]pyrrole[3,2-d]pyridazinone, 2-ylboronic acid], the activation at 57 µM was 101 ± 1.4%.
Take `COc1cccc(S(=O)(=O)N2CCN(S(=O)(=O)c3ccc4c(c3)OCCO4)CC2)c1` [Compound 17, 1-(2,3-dihydrobenzo[b][1,4]dioxin-6-ylsulfonyl)-4-(3-methoxyphenylsulfonyl)piperazine]: the activation at 57 µM is 90 ± 4.5%. Moreover, under setting [1], the AC50 was determined as 113 nM.
As to `O=S(=O)(c1cccc(C(F)(F)F)c1)N1CCN(S(=O)(=O)c2ccc3c(c2)OCCO3)CC1` [Compound 16, 1-(2,3-dihydrobenzo[b][1,4]dioxin-6-ylsulfonyl)-4-(3-(trifluoromethyl)phenylsulfonyl)piperazine], the activation at 57 µM is 39.3 ± 6.2%. Further, the AC50 under setting [1] is 209 nM.
Turning to `O=S(=O)(NC1CCN(S(=O)(=O)c2ccc3c(c2)OCCO3)C1)c1c(F)cccc1F` (centres unmarked) [Compound 42, N-(1-(2,3-dihydrobenzo[b][1,4]dioxin-6-ylsulfonyl)pyrrolidin-3-yl)-2,6-difluorobenzenesulfonamide], the activation at 57 µM came to 83.7 ± 24.2%. For the same compound, the AC50 under setting [1] was more than 10000 nM.
Take `CCCc1cc(F)c(S(=O)(=O)N2CCN(S(=O)(=O)c3ccc4c(c3)OCCO4)CC2)cc1F` [Compound 12, 1-(2,5-difluoro-4-propylphenylsulfonyl)-4-(2,3-dihydrobenzo[b][1,4]dioxin-6-ylsulfonyl)piperazine]: the “PKM2 activation, result in words” value is listed as “diminished activity” and the activation at 57 µM was 69.2 ± 10.4%. Besides, the AC50 under setting [1] came out at 757 nM.
As for `CCNc1cccc(S(=O)(=O)N2CCN(S(=O)(=O)c3ccc4c(c3)OCCO4)CC2)c1` [Compound 136], the “hPK, M2 Max. Res.” value came out at 63.00%. Besides, the AC50 under setting [1] turned out to be 81 nM.
On to `O=S(=O)(c1c(F)cccc1F)C1CCN(S(=O)(=O)c2ccc3c(c2)OCCO3)CC1` [Compound 20, 4-(2,6-difluorophenylsulfonyl)-1-(2,3-dihydrobenzo[b][1,4]dioxin-6-ylsulfonyl)piperidine], for which the activation at 57 µM amounted to 104 ± 5.1%. The AC50 under setting [1] came out at 254 nM.
For the compound `O=S(=O)(NCCNS(=O)(=O)c1c(F)cccc1F)c1ccc2c(c1)OCCO2` [Compound 32, N-(2-(2,6-difluorophenylsulfonamido)ethyl)-2,3-dihydrobenzo[b][1,4]dioxine-6-sulfonamide], the activation at 57 µM came out at 60.3 ± 20.6%.
Take `CSc1cc2c(s1)c1cnn(Cc3ccccc3F)c(=O)c1n2C` [Compound 72, 2-Methylthio-4-methyl-6-[(2-fluorophenyl)methyl]-4H-thieno[3,2-b]pyrrole[3,2-d]pyridazinone]: the activation at 57 µM stood at 96.3 ± 3.8%. Moreover, under setting [1], the AC50 amounted to 24 ± 10 nM.
For the compound `O=S(=O)(c1ccc2c(c1)OCCO2)N1CCN(S(=O)(=O)c2cccc[n+]2[O-])CC1` [Compound 19, 2-(4-(2,3-dihydrobenzo[b][1,4]dioxin-6-ylsulfonyl)piperazin-1-ylsulfonyl)pyridine 1-oxide], the activation at 57 µM is 81.5 ± 3.2%. In addition, the AC50 under setting [2] was 254 ± 47 nM. The Emax (luciferase-coupled assay, relative to activation by FBP, read-out: maximum response) stood at 104%.

The values above are taken from US8937067B2, “Activators of human pyruvate kinase” (The United States of America, as represented by the …, priority 2008, dated 2015).
